Laboratory results taken from patent publication US20180045715A1, “STRUCTURE AND FUNCTION OF THE SALICYCLIC ACID BINDING SITES ON HUMAN HMGB1 AND METHODS OF USE THEREOF FOR THE RATIONAL DESIGN OF BOTH SALICYCLIC ACID DERIVATIVES AND OTHER AGENTS THAT ALTER ANIMAL AND PLANT HMGBS ACTIVITIES” (Boyce Thompson Institute for Plant Research, Inc., priority 2015, published 2018).
Values joined by “and” are separate entries in the source; they are usually repeats but may differ in a detail not shown here. Identical values can stand only once. Like-named read-outs stand apart in the source and are kept apart here.

Key:
CXCL12 = molecular target: T1, CXCL12 (Homo sapiens, UniProt P48061); assay: WaterLOGSY NMR with CXCL12; format: binding; details: 6 mM SA or 5 mM ac3AESA, 20 μM protein
T1 construct: full-length disulfide-intact CXCL12
T1 sequence (P48061 22-89 limits assumed, species assumed): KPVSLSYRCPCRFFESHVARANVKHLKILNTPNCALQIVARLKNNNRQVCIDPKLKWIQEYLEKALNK
Source text: (§1) NMR can be used to detect protein ligand interactions either by protein-detected experiments (Lepre, Moore et al. 2004), detecting changes in the frequencies of resonances of the protein sample due to ligand binding (protein-detected chemical shift perturbation (CSP) experiments), or by ligand-detected experiments (Lepre, Moore et al. 2004), in which NMR properties of the ligands due to ligand-protein interactions are detected. Protein-detected ligand binding experiments are usually done using isotope-enriched protein samples which can be studied by isotope-filtered NMR experiments, including for example ^15N-^1H-HSQC (Kay, Keifer et al. 1992). Ligand-detected experiments include the Waterlogsy experiment (Meyer and Peters 2003, Lepre, Moore et al. 2004, Furihata, Shimotakahara et al. 2008), which detects interactions in the ternary complex formed by the protein, the ligand, and one or more water molecules, and the Saturation Transfer Difference (STD) NMR experiments (Mayer and Meyer 2001, Lepre, Moore et al. 2004, Wang, Liu et al. 2004), which detects magnetization transfer from the protein to the ligand in the protein-ligand complex. The Waterlogsy experiment is a more sensitive experiment, typically employed to detect qualitatively if there is an interaction between protein and ligand. […]

COX = details: cited from earlier work
[1] = system: fMLP-induced migration of NIH/3T3 fibroblast cells; assay: Chemotaxis assay: fMLP-induced fibroblast migration (specificity control); format: cell-based, mouse; details: 0.1 nM fMLP
Protocol: Cell migration was assayed using Boyden chambers (Venereau et al., 2012). The downside of PVP-free polycarbonate filters (8 μm pores; Millipore) was coated with 50 μg/ml fibronectin (Sigma). Serum-free DMEM (negative control), DMEM containing 0.1 nM fMLP (positive control; Sigma), or DMEM containing 1 nM HMGB1^RE or HMGB1^SS were placed in the lower chamber, together with different concentrations of SA (Sigma). The mouse 3T3 fibroblast cells were cultured in DMEM media supplemented with 10% CS until 90% confluence, washed twice with PBS to eliminate any floating cells, and harvested with trypsin. 50,000 cells in 200 μL were added to the upper chamber, and cells were left to migrate for 3 h at 37° C. Non-migrating cells were removed with a cotton swab, and migrated cells were fixed with ethanol and stained with Giemsa.
HMGB1^RE acts as a chemo-attractant that mediates migration of several cell types, including monocytes, fibroblasts, mesoangioblasts, smooth muscle cells, and colon cancer cells (Venereau et al., 2012). To determine whether SA alters HMGB 1's chemo-attractant activity, a chemotaxis assay was performed with mouse 3T3 fibroblasts.

HMGB1-CXCL12 Complex = molecular target: T2, HMGB1-CXCL12 Complex (Homo sapiens, UniProt P09429, DEL90-93); assay: WaterLOGSY NMR with HMGB1/CXCL12 complex; format: binding; details: 6 mM SA or 5 mM ac3AESA, 20 μM complex
T2 construct: (i) full length: residues 2-215; full-length disulfide-intact CXCL12; hexaHis (TEV-cleavable) (N, cleaved yes)
T2 sequence (P09429 2-215 limits assumed): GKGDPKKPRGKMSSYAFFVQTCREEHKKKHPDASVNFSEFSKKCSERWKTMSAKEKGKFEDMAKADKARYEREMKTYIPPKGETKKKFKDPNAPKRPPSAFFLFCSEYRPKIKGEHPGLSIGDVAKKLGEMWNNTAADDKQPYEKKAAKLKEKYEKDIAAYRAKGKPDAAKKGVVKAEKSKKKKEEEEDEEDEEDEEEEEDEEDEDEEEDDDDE
Source text: as §1

HMGB1 Box A domain = molecular target: T3, HMGB1 Box A domain (Homo sapiens, UniProt P09429); assay: 15N-1H HSQC titration for Kd measurement; format: binding
T3 construct: (iii) Box A: residues 10-80; hexaHis (TEV-cleavable) (N, cleaved yes); made in house
T3 sequence (P09429 10-80): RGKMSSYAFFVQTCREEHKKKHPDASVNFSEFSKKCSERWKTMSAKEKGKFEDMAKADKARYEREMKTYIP
Protocol: […] Samples were analyzed with and without SA or other candidate inhibitors at 25° C. Chemical shift perturbation studies were carried out using either a Bruker Avance 800 MHz Avance NMR system with 4-mm NMR tubes, or using a Bruker Avance 600 MHz NMR spectrometer equipped with a 1.7 mm micro cryoprobe. 1024 or 2048 complex points were acquired for each of 80 to 200 increments in the ^15N dimension with a recycle delay of 1 s. Each spectrum was typically acquired for 2-8 hrs. Chemical shift assignments were determined using a uniformly ^13C,^15N-enriched HMGB1-ΔC construct at 25° C. via traditional triple-resonance NMR experiments (Biamonti et al., 1994; Moseley et al., 2001) recorded on a Bruker 800 MHz NMR spectrometer equipped with a 5 mm cryoprobe. Disulfide oxidation studies were carried out using the ^15N-^1H SOFAST-HMQC NMR experiment (Schanda & Brutscher, 2005; Schanda et al., 2005; Zandarashvili et al., 2013).
NMR experiments were used to discover that ac3AESA binds to HMGB1 Box A domain of HMGB1 more tightly than SA itself. […] Chemical shift perturbations (CSPs) are defined as Δδppm=[(δHN*6.5)^2+δN^2]^1/2.

In the case of O=C(O)c1ccccc1O [SA, salicylic acid], the “WaterLOGSY binding to CXCL12” value (CXCL12) is listed as “binds”, the “IC50, inhibition of COX activity in vitro” value (COX; literature (Mitchell et al., 1997; Vane, 1971)) is listed as over 100 µg/mL and the IC50 (COX; literature, conversion in parentheses, read-out: IC50, inhibition of COX activity in vitro) is listed as over 0.5 mM. For the same molecule, the “effect on fibroblast migration induced by fMLP” value [1] was “did not affect”, the “WaterLOGSY binding to complex formed between CXCL12 and HMGB1” value (HMGB1-CXCL12 Complex) was “binds” and the Kd (HMGB1 Box A domain; 0.2 mM Box A, pH 7.5, read-out: Kd of binding to HMGB1 Box A (HSQC titration, 1:1 fit)) was ~90 mM and 90 mM. It also gave a Kd (HMGB1 Box A domain; Box A or full-length HMGB1, read-out: Kd from titrating SA with either Box A or full-length HMGB1) of about 10 mM and a Kd (HMGB1 Box A domain; read-out: affinity (Kd) for Box A of HMGB1 as stated in definitions) of about 10 mM.
